One experiment concerns the target T1, Progesterone receptor (Homo sapiens, UniProt P06401).
T1 sequence (P06401 whole entry): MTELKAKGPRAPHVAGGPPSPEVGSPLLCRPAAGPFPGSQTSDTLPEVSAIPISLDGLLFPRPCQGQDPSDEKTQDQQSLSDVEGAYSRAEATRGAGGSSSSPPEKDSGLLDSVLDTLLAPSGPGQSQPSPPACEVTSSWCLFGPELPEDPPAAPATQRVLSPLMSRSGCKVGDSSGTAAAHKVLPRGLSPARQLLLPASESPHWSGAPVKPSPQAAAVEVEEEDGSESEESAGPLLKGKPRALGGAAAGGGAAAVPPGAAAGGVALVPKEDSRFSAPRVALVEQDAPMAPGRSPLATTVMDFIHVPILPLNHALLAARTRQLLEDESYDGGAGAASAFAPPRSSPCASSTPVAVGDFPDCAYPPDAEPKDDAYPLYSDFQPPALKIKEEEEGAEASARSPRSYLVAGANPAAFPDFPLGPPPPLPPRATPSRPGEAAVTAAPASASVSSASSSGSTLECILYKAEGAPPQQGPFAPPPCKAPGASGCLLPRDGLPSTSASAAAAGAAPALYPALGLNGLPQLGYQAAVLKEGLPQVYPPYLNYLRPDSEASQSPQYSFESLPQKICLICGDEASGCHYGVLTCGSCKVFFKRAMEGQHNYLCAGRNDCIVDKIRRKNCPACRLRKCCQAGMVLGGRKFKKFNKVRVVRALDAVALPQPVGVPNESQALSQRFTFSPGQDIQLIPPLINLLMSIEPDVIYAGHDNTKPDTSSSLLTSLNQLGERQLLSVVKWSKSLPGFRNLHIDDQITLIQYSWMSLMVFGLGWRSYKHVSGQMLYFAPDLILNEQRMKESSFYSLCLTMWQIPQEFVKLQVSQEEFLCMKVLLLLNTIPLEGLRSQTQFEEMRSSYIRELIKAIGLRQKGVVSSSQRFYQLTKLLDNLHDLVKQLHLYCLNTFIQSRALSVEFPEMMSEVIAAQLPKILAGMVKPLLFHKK
Nature of the experiment: Binding affinity towards progesterone receptor using fluorescence polarization competitive binding assay. (In general: Fluorescence polarisation rises when a labelled molecule tumbles more slowly, as on binding a larger partner.)

Experiment [1] deals with T2, Glucocorticoid receptor (Homo sapiens, UniProt P04150).
T2 sequence (P04150 whole entry): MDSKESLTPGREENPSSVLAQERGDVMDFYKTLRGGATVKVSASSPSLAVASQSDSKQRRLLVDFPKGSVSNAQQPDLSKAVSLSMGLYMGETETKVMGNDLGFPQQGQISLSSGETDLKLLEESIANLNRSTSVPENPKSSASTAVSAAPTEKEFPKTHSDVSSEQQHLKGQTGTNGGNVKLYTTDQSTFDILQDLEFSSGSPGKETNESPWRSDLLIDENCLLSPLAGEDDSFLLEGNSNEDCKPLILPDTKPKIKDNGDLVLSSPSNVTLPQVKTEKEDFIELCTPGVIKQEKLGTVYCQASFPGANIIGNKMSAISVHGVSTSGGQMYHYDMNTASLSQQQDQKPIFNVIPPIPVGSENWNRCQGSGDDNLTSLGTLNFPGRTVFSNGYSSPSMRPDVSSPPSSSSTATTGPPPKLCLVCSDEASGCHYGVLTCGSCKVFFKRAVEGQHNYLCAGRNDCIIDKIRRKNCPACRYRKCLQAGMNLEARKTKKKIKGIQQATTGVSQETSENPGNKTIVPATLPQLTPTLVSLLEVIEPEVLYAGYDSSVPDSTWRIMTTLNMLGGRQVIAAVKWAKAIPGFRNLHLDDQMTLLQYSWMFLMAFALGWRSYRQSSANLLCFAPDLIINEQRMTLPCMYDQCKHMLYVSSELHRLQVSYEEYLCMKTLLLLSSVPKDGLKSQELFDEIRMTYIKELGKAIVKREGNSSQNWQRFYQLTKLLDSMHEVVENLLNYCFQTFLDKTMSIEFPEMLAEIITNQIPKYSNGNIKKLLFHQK
Nature of the experiment: Binding affinity towards glucocorticoid receptor using fluorescence polarization competitive binding assay.

The target of experiment [2] is T3, Mineralocorticoid receptor (Homo sapiens, UniProt P08235).
T3 sequence (P08235 whole entry): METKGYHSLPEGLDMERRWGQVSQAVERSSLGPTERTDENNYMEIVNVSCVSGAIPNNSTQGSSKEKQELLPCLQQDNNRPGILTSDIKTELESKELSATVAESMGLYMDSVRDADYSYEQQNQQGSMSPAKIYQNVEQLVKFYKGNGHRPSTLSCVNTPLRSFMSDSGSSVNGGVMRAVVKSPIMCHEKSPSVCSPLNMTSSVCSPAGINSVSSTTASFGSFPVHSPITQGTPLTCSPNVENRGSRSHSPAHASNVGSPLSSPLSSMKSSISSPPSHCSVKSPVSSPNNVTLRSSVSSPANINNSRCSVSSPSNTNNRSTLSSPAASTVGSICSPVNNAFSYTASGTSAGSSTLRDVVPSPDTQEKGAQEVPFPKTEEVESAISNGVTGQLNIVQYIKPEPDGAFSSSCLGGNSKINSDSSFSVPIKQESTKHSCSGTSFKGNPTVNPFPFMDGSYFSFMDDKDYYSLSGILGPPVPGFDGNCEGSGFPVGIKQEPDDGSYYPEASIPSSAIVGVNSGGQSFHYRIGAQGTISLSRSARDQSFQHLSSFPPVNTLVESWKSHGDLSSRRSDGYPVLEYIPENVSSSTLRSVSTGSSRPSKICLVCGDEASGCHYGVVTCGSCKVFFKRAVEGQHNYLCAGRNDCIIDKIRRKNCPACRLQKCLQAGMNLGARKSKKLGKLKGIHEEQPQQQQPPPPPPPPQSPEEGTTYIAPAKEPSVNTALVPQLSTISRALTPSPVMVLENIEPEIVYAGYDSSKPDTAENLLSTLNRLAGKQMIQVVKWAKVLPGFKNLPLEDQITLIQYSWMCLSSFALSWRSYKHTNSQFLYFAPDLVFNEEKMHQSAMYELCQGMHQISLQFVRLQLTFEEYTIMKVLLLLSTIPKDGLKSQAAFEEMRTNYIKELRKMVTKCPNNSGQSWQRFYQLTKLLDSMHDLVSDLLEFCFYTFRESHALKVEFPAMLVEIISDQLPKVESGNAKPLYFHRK
Nature of the experiment: Binding affinity towards mineralocorticoid receptor using fluorescence polarization competitive binding assay.

The target in experiment [3] is T2, Glucocorticoid receptor. Nature of the experiment: Effective concentration against inhibition of Dexamethasone induced glucocorticoid receptor transactivation of mouse mammary tumor virus luciferase gene in HeLa cells. It is filed as cell-based.
Experiment [4] has as its target T2, Glucocorticoid receptor. Description: Effective agonist concentration for transcriptional repression of IL-6 production in IL-1 stimulated human foreskin fibroblasts. The format is functional.

Our source for the IC50 and EC50 values is ChEMBL document CHEMBL1143464, “Trifluoromethyl group as a pharmacophore: effect of replacing a CF3 group on binding and agonist activity of a glucocorticoid receptor ligand” (Bioorg Med Chem Lett, 2005).

On to `CC(C)(CC(O)(C(=O)Nc1ccc2c(c1)COC2=O)C(F)(F)F)c1cc(F)ccc1O` (centres undefined), for which the IC50 (commonly the point on the concentration scale where inhibition reaches its midpoint) at Progesterone receptor turned out to be 0.016 µM; at Glucocorticoid receptor [1] it was 0.006 µM; in experiment [2] it was 0.03 µM. In addition, the figures for the half-maximal effective concentration (EC50) on Glucocorticoid receptor [3] and on Glucocorticoid receptor [4] were 0.15 µM and 0.045 µM, respectively.

Regarding `Cc1noc(=O)c2ccc(NC(=O)C(O)(CC(C)(C)c3cc(F)ccc3O)C(F)(F)F)cc12` (centres undefined), the IC50 came out at 0.022 µM on Progesterone receptor, 0.004 µM on Glucocorticoid receptor [1] and 0.041 µM in experiment [2]. Further, the midpoint of the response on Glucocorticoid receptor [4], the EC50, lay at 0.01 µM.
